Results: PMC3034772 (Pharmaceutical research, 2010)
Several values for one entry are separate records, joined by “and”; a condition that tells them apart may be missing. Identical values can stand only once. Like-named read-outs stand apart in the source and are kept apart here.

How the values were obtained:
[1] = cited from earlier work
[2] = Charge class Q, dominant calculated charge state at pH 7.4; type: physicochemical
[3] = In combo PAMPA-BBB model, calculated log Po in situ
[4] = PAMPA; for Pm^7.4: pH 7.4
[5] = in vivo
[6] = for Pm^7.4: pH 7.4
[7] = mouse, in vivo
[8] = cited from earlier work; remark: listed apart in the source
[9] = mouse, in vivo; cited from earlier work
[10] = physchem
[11] = physchem; remark: listed apart in the source
[12] = In situ brain perfusion, individual literature values; details: efflux inhibition CsA; from literature PS
[13] = dominant calculated concentration fraction of the drug in a charge state
[14] = difference observed minus calculated, external set, no efflux inhibition

Row | SMILES | Q (charge class) [2, 13] | log PABL [4] | log Po [4] | log Ppara [4] | Pm^7.4 [4] | obs–calc (log Po^in situ) [3, 14] | also measured
1 | COc1ccc(CCN2CCC(Nc3nc4ccccc4n3Cc3ccc(F)cc3)CC2)cc1 [Astemizole] | + | −3.54 | −1.39 | −6.54 | 2422 |  | pKa ([1]; ref [46]): 8.60; pKa ([1]; second pKa column, ref [46]): 5.84; obs–calc (log Po^in situ) ([3]; efflux inhibition mdr1a(−/−)): −1.2; obs–calc (log Po^in situ) ([3]; no efflux inhibition): −1.3
2 | CCC12CCN(CC3(O)CC3)C(Cc3ccc(O)cc31)C2(C)C (stereo not drawn) [Bremazocine] |  |  |  |  |  |  | log Po^in situ (obs) [5]: −2.96; Q (charge class) [2]: +; log Po ([6]; PAMPA-BBB intrinsic permeability, Type I, collected under 1.5 μL conditions but scaled to the 3 μL level): −2.87; log PABL ([6]; aqueous boundary layer permeability, Type I, 1.5 μL conditions): −3.00; log Po^in situ (obs) [7]: −2.76; obs–calc (log Po^in situ) [3]: 0.4 and 0.2; PS ([8]; in vivo): 81 10^−4 mLg^−1s^−1; log PS ([8]; in vivo): −2.09; PS [9]: 129 10^−4 mLg^−1s^−1; log PS [9]: −1.89
3 | O=C1CC2(CCCC2)CC(=O)N1CCCCN1CCN(c2ncccn2)CC1 [Buspirone] | + |  |  |  |  |  | pKa ([10]; pKa): 7.59
4 | COc1cccc2c1C(=O)c1c(O)c3c(c(O)c1C2=O)C[C@@](O)(C(C)=O)C[C@@H]3O[C@H]1C[C@H](N)[C@H](O)[C@H](C)O1 [Daunomycin] |  | −4.38 | −2.71 | −6.91 | 10 |  | pKa ([1]; ref [39]): 12.00; pKa ([1]; second pKa column, ref [39]): 9.70; Q (charge class) [2]: +; obs–calc (log Po^in situ) [3]: 0.8
5 | CC(C)[C@H](NC(=O)[C@H](CCC(=O)O)NC(=O)[C@H](Cc1ccccc1)NC(=O)[C@@H](C)NC(=O)[C@@H](N)Cc1ccc(O)cc1)C(=O)N[C@H](C(=O)NCC(N)=O)C(C)C [Deltorphin II] |  |  |  |  |  |  | log Po^in situ (obs) [5]: −6.56; log Po ([6]; PAMPA): −6.51; Pm^7.4 ([6]; PAMPA): <0.01; log Po^in situ (obs) [7]: −6.36; PS ([8]; in vivo): 0.3 10^−4 mLg^−1s^−1; log PS ([8]; in vivo): −4.56; PS [9]: 0.4 10^−4 mLg^−1s^−1; log PS [9]: −4.36
6 | O=c1[nH]c2ccccc2n1CCCN1CCC(n2c(=O)[nH]c3cc(Cl)ccc32)CC1 [Domperidone] | + |  |  |  |  |  | pKa [11]: 9.38; PS ([8]; in vivo): 5 10^−4 mLg^−1s^−1; log PS ([8]; in vivo): −3.29; PS [9]: 16 10^−4 mLg^−1s^−1
7 | CN(C)CCC=C1c2ccccc2COc2ccccc21 [Doxepin] | + | −3.13 | −1.60 | −6.47 | 223 |  | pKa ([1]; ref [11]): 9.45; obs–calc (log Po^in situ) ([3]; no efflux inhibition): 0.3
8 | CN1C[C@H](C(=O)N[C@]2(C)O[C@@]3(O)[C@@H]4CCCN4C(=O)[C@H](Cc4ccccc4)N3C2=O)C=C2c3cccc4[nH]cc(c34)C[C@H]21 [Ergotamine] |  | −3.73 | −2.50 | −6.03 | 1823 |  | log Po^in situ (obs) [5]: −3.82; Q (charge class) [2]: 0; pKa [11]: 9.49; obs–calc (log Po^in situ) [3]: 0.1; PS ([8]; in vivo): 87 10^−4 mLg^−1s^−1; log PS ([8]; in vivo): −2.06
9 | CC(C)(C)NC(=O)[C@@H]1CN(Cc2cccnc2)CCN1C[C@@H](O)C[C@@H](Cc1ccccc1)C(=O)N[C@H]1c2ccccc2C[C@H]1O [Indinavir] | 0 |  |  |  |  | −0.4 | pKa ([1]; ref [11]): 4.91; log Po ([6]; PAMPA): −5.17; obs–calc (log Po^in situ) ([3]; efflux inhibition mdr1a(−/−)): 0.3
10 | N[C@@H](Cc1ccc(O)c(O)c1)C(=O)O [L-DOPA] | ± | −4.47 | −7.81 |  | 0.01 | 0.7 and 0.9 | pKa ([1]; ref [39]): 8.77
11 | CN(C)C(=O)C(CCN1CCC(O)(c2ccc(Cl)cc2)CC1)(c1ccccc1)c1ccccc1 [Loperamide] |  | −3.19 | −2.67 | −12 | 102 |  | Q (charge class) [2]: +; log Po^in situ (obs) [7]: −2.52
12 | N[C@@H](Cc1ccc(N(CCCl)CCCl)cc1)C(=O)O [Melphalan] |  | −4.65 | −7.51 | −7.71 | 0.03 |  | log Po^in situ (obs) [5]: −5.27; Q (charge class) [2]: ±; obs–calc (log Po^in situ) [3]: 0.0; PS ([8]; in vivo): 5 10^−4 mLg^−1s^−1; log PS ([8]; in vivo): −3.28
13 | CN1CCCCC1CCN1c2ccccc2Sc2ccc([S+](C)[O-])cc21 (stereo not drawn) [Mesoridazine] | + | −3.26 | −4.33 | −6.21 | 14 | 0.8 | pKa ([10]; pKa): 7.79
14 | CN(Cc1cnc2nc(N)nc(N)c2n1)c1ccc(C(=O)N[C@@H](CCC(=O)O)C(=O)O)cc1 [Methotrexate] | ± |  |  |  |  |  | pKa ([10]; pKa): 5.55; log PABL ([6]; PAMPA): −4.73; Pm^7.4 ([6]; PAMPA): 0.001
15 | Oc1ccc2c3c1O[C@H]1c4[nH]c5ccccc5c4C[C@@]4(O)[C@@H](C2)N(CC2CC2)CC[C@]314 [Naltrindole] |  |  | −2.23 | −6.20 | 659 |  | Q (charge class) [2]: +; log Po^in situ (obs) [7]: −3.03; PS [9]: 104 10^−4 mLg^−1s^−1; log PS [9]: −1.98
16 | NNCCc1ccccc1 [Phenelzine] | + | −4.58 | −2.20 | −6.86 | 2236 | −1.9 | pKa [11]: 7.66
17 | COc1cc2nc(N3CCN(C(=O)c4ccco4)CC3)nc(N)c2cc1OC [Prazosin] |  |  |  |  |  |  | pKa ([10]; pKa): 6.79
18 | CCCN(CCC)S(=O)(=O)c1ccc(C(=O)O)cc1 [Probenecid] | − | −3.52 | −2.97 | −6.10 | 0.06 |  | pKa ([1]; ref [38]): 3.16; obs–calc (log Po^in situ) ([3]; efflux inhibition mdr1a(−/−)): −0.6; obs–calc (log Po^in situ) ([3]; no efflux inhibition): −0.7
19 | OCCOCCN1CCN(C2=Nc3ccccc3Sc3ccccc32)CC1 [Quetiapine] | 0 | −3.88 | −2.98 | −6.02 | 583 | 0.2 | pKa ([1]; ref [38]): 7.30; pKa ([1]; second pKa column, ref [38]): 2.27
20 | CC(C)c1nc(CN(C)C(=O)N[C@H](C(=O)N[C@@H](Cc2ccccc2)C[C@H](O)[C@H](Cc2ccccc2)NC(=O)OCc2cncs2)C(C)C)cs1 [Ritonavir] | 0 |  |  |  |  | −0.7 and −0.6 | pKa ([10]; pKa): 2.42; log Po ([6]; PAMPA): −4.24; Pm^7.4 ([6]; PAMPA): 57; obs–calc (log Po^in situ) ([3]; efflux inhibition mdr1a(−/−)): 0.0 and 0.2
21 | CCCN1C[C@H](C)N([C@H](c2ccc(C(=O)N(CC)CC)cc2)c2cccc(OC)c2)C[C@H]1C [SNC121] |  |  |  |  |  |  | Q (charge class) [2]: +; log Po ([6]; PAMPA): −2.91; Pm^7.4 ([6]; PAMPA): 201; log Po^in situ (obs) [7]: −2.96; PS [9]: 363 10^−4 mLg^−1s^−1; log PS [9]: −1.44
22 | CNS(=O)(=O)Cc1ccc2[nH]cc(CCN(C)C)c2c1 [Sumatriptan] | + | −4.65 | −4.86 | −7.51 | 0.4 | 0.0 | pKa [11]: 9.64
23 | CC(C)(C)c1ccc(C(O)CCCN2CCC(C(O)(c3ccccc3)c3ccccc3)CC2)cc1 (stereo not drawn) [Terfenadine] | + | −3.76 | −0.54 | −5.70 |  | −0.9 | log Po^in situ (obs) [12]: −0.92; obs–calc (log Po^in situ) ([3]; efflux inhibition CsA): 0.0; log PS ([8]; efflux inhibition CsA): −1.39
24 | CSc1ccc2c(c1)N(CCC1CCCCN1C)c1ccccc1S2 (stereo not drawn) [Thioridazine] | + | −2.84 | −1.27 | −6.23 | 1972 |  | pKa ([1]; ref [11]): 8.82; obs–calc (log Po^in situ) ([3]; no efflux inhibition): −0.8
25 | O=c1n(CCCN2CCN(c3cccc(Cl)c3)CC2)nc2ccccn12 [Trazodone] | 0 | −3.90 | −2.94 | −5.99 | 534 |  | pKa [11]: 7.46; obs–calc (log Po^in situ) ([3]; no efflux inhibition): 0.0
26 | CN1CCN(CCCN2c3ccccc3Sc3ccc(C(F)(F)F)cc32)CC1 [Trifluoperazine] | + | −3.32 | −1.96 | −5.94 | 1442 | −1.1 | pKa [11]: 8.22
27 | CC(=O)CC(c1ccccc1)c1c(O)c2ccccc2oc1=O (stereo not drawn) [Warfarin] | − | −3.04 | −3.21 | −8.00 | 1.4 |  | pKa [10]: 4.75; obs–calc (log Po^in situ) [3]: 0.4 and 0.5
28 | Cc1cn([C@H]2C[C@H](N=[N+]=[N-])[C@@H](CO)O2)c(=O)[nH]c1=O [Zidovudine] | 0 |  |  |  |  |  | pKa ([10]; pKa): 9.61; log Po ([6]; PAMPA): −6.24
29 | N[C@H](Cc1ccc(F)cc1)C(=O)O [p-F-Phenylalanine(D)] |  |  |  |  |  |  | log Po^in situ (obs) [5]: −4.84; log Po^in situ (obs) [7]: −4.81; PS ([8]; in vivo): 14 10^−4 mLg^−1s^−1; log PS ([8]; in vivo): −2.85
30 | N[C@@H](Cc1ccc(F)cc1)C(=O)O [p-F-Phenylalanine(L)] |  |  |  |  |  |  | log Po^in situ (obs) [7]: −3.45; PS [9]: 347 10^−4 mLg^−1s^−1; log PS [9]: −1.46
